The record followed here is patent US4347319A, “Microbiological epoxidation process” (priority 1980, dated 1982).

For assay [1], the system named is cell extract of Torulopsis sp. strain A1 NRRL-Y-11,419. Kind of assay: Oxidation of secondary alcohols to methylketone by cell extracts of yeasts. The format is biochemical.
In assay [2] the test system is cell extract of Hansenula polymorpha ATCC 26,012. The assay is described as above. The format is biochemical.
For assay [3], the system named is Torulopsis sp. Strain A1 (NRRLY-11,419). Kind of assay: Oxidation of sec-alcohols to ketones by cell suspensions of yeasts. The format is cell-based. The note with it: sec-alcohol to methyl ketone.
Assay [4] deals with Methylobacter bovis CRL 19 NRRL B-11,217. Nature of the assay: Sec. alcohol oxidation by cell suspensions of methanol-grown cells. The format is cell-based. The conditions noted are these: sec. alcohol to methyl ketone.
The test system of assay [5] is Methylocystis parvus CRL 18 NRRL B-11,204. The description is as above. Format: cell-based. The note with it: sec. alcohol to methyl ketone.
Assay [6] relates to Methylobacter chroococcum CRL M6 NRRL B-11,214. The description is as above. Format: cell-based. The conditions noted are these: sec. alcohol to methyl ketone.
The subject of assay [7] is Methylobacter vinelandii CRL M5Y NRRL B-11,218. The assay is described as above. Format: cell-based. The conditions noted are these: sec. alcohol to methyl ketone.
In assay [8] the test system is Methylosinus trichosporium CRL 15 NRRL B-11,202. Described as above. The format is cell-based. The note with it: sec. alcohol to methyl ketone.
The subject of assay [9] is Methylomonas streptobacterium CRL 17 PM3 NRRL B-11,208. Described as above. The format is cell-based. The conditions noted are these: sec. alcohol to methyl ketone.
The test system of assay [10] is Methylomonas methanica CRL M4P NRRL B-11,205. The description is as above. Format: cell-based. The note with it: sec. alcohol to methyl ketone.
The test system of assay [11] is Methylobacterium organophilum CRL 26 NRRL B-11,222. The description is as above. Format: cell-based. The note with it: sec. alcohol to methyl ketone.
Assay [12] concerns the target T1, cell-free fractions of Methylococcus capsulatus (CRL M1, NRRL B-11,219) (Methylococcus capsulatus, UniProt G1UBD1+Q603F1+Q607G3).
T1 sequence (G1UBD1 33-414): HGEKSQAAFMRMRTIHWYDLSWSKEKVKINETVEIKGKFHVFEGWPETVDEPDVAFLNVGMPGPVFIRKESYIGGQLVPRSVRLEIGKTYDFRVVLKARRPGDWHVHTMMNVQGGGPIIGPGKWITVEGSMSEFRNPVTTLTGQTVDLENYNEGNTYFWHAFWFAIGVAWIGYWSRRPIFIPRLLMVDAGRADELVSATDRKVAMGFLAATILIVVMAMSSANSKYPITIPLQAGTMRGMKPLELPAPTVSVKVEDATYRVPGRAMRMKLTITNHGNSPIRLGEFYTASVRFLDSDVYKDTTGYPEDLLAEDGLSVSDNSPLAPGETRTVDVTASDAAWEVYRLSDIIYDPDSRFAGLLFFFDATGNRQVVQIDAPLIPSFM
T1 sequence (Q607G3 1-247): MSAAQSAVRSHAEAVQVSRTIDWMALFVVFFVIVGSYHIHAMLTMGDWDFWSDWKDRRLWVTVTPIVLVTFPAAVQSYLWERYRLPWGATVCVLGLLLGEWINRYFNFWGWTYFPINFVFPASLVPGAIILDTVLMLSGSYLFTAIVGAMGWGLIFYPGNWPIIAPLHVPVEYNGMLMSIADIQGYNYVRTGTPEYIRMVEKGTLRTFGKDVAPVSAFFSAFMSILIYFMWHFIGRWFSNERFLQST
T1 sequence (Q603F1 1-260): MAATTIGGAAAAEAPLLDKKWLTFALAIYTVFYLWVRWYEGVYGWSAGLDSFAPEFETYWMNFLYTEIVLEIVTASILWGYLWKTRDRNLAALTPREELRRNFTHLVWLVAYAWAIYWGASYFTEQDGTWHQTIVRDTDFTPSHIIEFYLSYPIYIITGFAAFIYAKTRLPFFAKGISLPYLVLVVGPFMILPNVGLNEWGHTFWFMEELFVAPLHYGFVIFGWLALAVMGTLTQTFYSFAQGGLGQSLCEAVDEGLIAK
Nature of the assay: Epoxidation and hydroxylation activities in cell-free fractions. The format is biochemical. The method, then: Cells of methane-grown Methylococcus capsulatus (CRL M1, NRRL B-11,219) were obtained by the method of Example 1. […] However, when the cells were disrupted by passing twice through a French pressure cell (1000 Kg. pressure), both activities were found in the crude extract after 10,000×g. centrifugation. All of the activity in the crude extract was collected as a particulate fraction by further centrifugation of the crude extract at 40,000×g. for 90 min. at 4° C.
^a The cells were disrupted by French Press as described above. NADH
[…] was added into the reaction mixture where indicated.
The amount of protein in the particulate fraction and the 40,000 ×
g. supernatant fraction used was 1 mg. and 2.5 mg., respectively. Each
assay contained 0.5 ml. reaction mixture.

Assay [13] deals with P(40) particulate fraction of Methylosinus sp. (CRL-15, NRRL B-11,202). Nature of the assay: Substrate competition: effect of methane on propylene epoxidation. The format is biochemical. The note with it: 30° C. The method, then:
The oxidation of methane and propylene by particulate [(P)40 and (P)80] fractions and soluble [S(80)] fraction was measured at 30° C. by estimating the production of methanol and propylene oxide, respectively. The reaction mixtures contained in […]: 150 mM potassium phosphate buffer, pH 7.0 containing 5 mM MgCl2 b, 0.6 ml; 10μ moles NADH, and cellular fraction.
Reaction mixtures were contained in 10 ml vials at 4° C. Vials were sealed with rubber caps. The gaseous phase in the vials was removed using vacuum and then was replaced with a gas mixture of methane or propylene and oxygen at a 1:1, v/v ratio. Oxidation of other gaseous n-alkanes and n-alkanes was examined as described above. For liquid substrates, 10 μl of substrate was used directly.
The hydroxylation of methane and the epoxidation of propylene by particulate fractions of methane-utilizing bacteria required oxygen and NADH. The question of whether the same or a similar enzyme was involved in the oxidation of both substrates was examined by substrate competition experiments. The experiment consisted of determining the effect of methane on the oxidation of propylene to propylene oxide by the P(40) particulate fraction of Methylosinus sp. (CRL-15, NRRL B-11,202).

[14] abbreviates: 2-butanol as a substrate, spectrophotometrically.
[15] abbreviates: methanol-grown, cell extract + NAD^+, sec. alcohol to methyl ketone, gas chromatography.
Setting [16] is: particulate fraction (10,000 × g.-40,000 × g.), 1 mg. protein.
The mark [17] stands for this setting: supernatant fraction of 40,000 × g., 2.5 mg. protein.

Take `CCC(C)O` (stereo not drawn) [2-Butanol]: the specific activities in assay [1] (setting [14]) is on record as 62 nmoles NAD^+ reduced per min. per mg. protein; in [2] (setting [14]), 85 nmoles NAD^+ reduced per min. per mg. protein. Also, the “Conversion Rate” value in assay [1] (setting [15]) is listed as 4.9 μmoles/hr/mg Protein; in assay [2] (setting [15]) it was 5.2 μmoles/hr/mg Protein; in assay [3] (growth substrate Ethanol), 4.7 μmoles/hr/mg of protein; in [3] (growth substrate Methanol), 4.9 μmoles/hr/mg of protein; in assay [3] (growth substrate Methylamine) it was 4.5 μmoles/hr/mg of protein; in assay [3] (growth substrate Methylformate) it was 4.9 μmoles/hr/mg of protein. For the same molecule, the “Conversion Rate” value in [3] (growth substrate Propylamine) is given as 3.8 μmoles/hr/mg of protein. Besides, the “Conversion Rates” value in assay [4] is given as 1.8 μmoles/hr/mg protein; in assay [5], 1.0 μmoles/hr/mg protein; in assay [6], 1.4 μmoles/hr/mg protein; in assay [7], 2.0 μmoles/hr/mg protein; in assay [8], 4.5 μmoles/hr/mg protein; in assay [9], 2.0 μmoles/hr/mg protein. The “Conversion Rates” value in assay [10] and in [11] was 2.5 μmoles/hr/mg protein each time.

Turning to `C` [Methane], the “Oxidation Rate” value worked out at 500 nmoles/30 min/assay in [12] (setting [16]), 650 nmoles/30 min/assay in assay [12] (particulate fraction + NADH), 0 nmoles/30 min/assay in assay [12] (supernatant fraction + NADH) and 0 nmoles/30 min/assay in assay [12] (setting [17]). The “Propylene Oxide Produced” value in assay [13] is 0 μmoles/hr./mg. protein.

With `C=CC` [Propylene], the “Oxidation Rate” value was 750 nmoles/30 min/assay in [12] (setting [16]), 900 nmoles/30 min/assay in assay [12] (particulate fraction + NADH), 0 nmoles/30 min/assay in [12] (supernatant fraction + NADH) and 0 nmoles/30 min/assay in assay [12] (setting [17]). For the same molecule, the “Propylene Oxide Produced” value in assay [13] was found to be 4.3 μmoles/hr./mg. protein.
